Measured values from patent US10485841B2, “Method for producing dry extracts” (Bionorica SE, priority 2011, dated 2019).

Assays:
[1] = tested on: carrageen-induced paw oedema; test: carrageen-induced paw oedema in rats (Example 2); format: in vivo, rat; details: 30 minutes following carrageen injection, FIG. 3
Description: (§1) The anti-inflammatory activity of Sinupret could be confirmed in the animal model. For example, carrageen-induced paw oedema in rats (Male Wistar Han rats, 220-230 g) was selected as the test model. In this model, it was possible to examine the anti-inflammatory effect of test substances by measuring their inhibitory effect on the paw oedema or pleuritis caused by carrageen. The following were used as reference substances: (RS)-2-[4-(2-methylpropyl)phenyl]propanoic acid (Ibuprofen®) and 2-[1-(4-chlorobenzoyl)-5-methoxy-2-methyl-1H-indol-3-yl] acetic acid (indomethacin, “indo”). In the present tests, groups of 10 rats in each case were treated either with Ibuprofen®, indomethacin, Sinupret® dry extract (SIN TR) or Sinupret® drug mixture (SIN, as commercially available) and were injected one hour later with carrageen. The inhibition of the oedema formation by the test and reference substances was determined at various moments in time after carrageen injection, wherein the paw volume of animals treated only with carrageen was used as a control (vehicle=blank control). The results of these tests are presented in Tables 1 and 2 and in FIGS. 3 to 6 and will be explained hereinafter.

[2] = tested on: carrageen-induced pleuritis; test: carrageen-induced pleuritis in rats; format: in vivo, rat; details: 5 mg/kg
Description: as §1
Rats (10 per group) were each treated with 100 mg/kg or 500 mg/kg of SIN and by way of comparison with 5 mg/kg of indomethacin and blank and were injected 1 hour later with carrageen.
“Inflammatory cells” correlates to PMN (polymorphonuclear neutrophils) accumulation/infiltration.
Statistics: average+/−SEM, n=10, ** p<0.01; ***p<0.001 vs vehicle (blank) (Tukey Test), p<0.05 is statistically significant.
Rats (10 per group) were each treated with 100 mg/kg or 500 mg/kg of SIN TR and by way of comparison with 5 mg/kg of indomethacin and blank and were injected one hour later with carrageen.

[3] = 4 h after carrageen, mean ± SEM, n=10

| Compound | inhibition of paw oedema [1] | exudate volume, inhibition vs vehicle ([2]; 4 h) | inflammatory cells, inhibition vs vehicle ([2]; 4 h) | IL1β [2, 3] [ng/rat] | LTB4 [2, 3] [ng/rat] | PGE2 [2, 3] [ng/rat] | TNFα [2, 3] [ng/rat] | exudate volume [2, 3] [mL] | inflammatory cells × 10^6 [2, 3] |
| --- | --- | --- | --- | --- | --- | --- | --- | --- | --- |
| CC(C)Cc1ccc(C(C)C(=O)O)cc1 (racemic) [Ibuprofen®, (RS)-2-[4-(2-methylpropyl)phenyl]propanoic acid] | still did not show any anti-inflammatory effect |  |  |  |  |  |  |  |  |
| COc1ccc2c(c1)c(CC(=O)O)c(C)n2C(=O)c1ccc(Cl)cc1 [Indomethacin, 2-[1-(4-chlorobenzoyl)-5-methoxy-2-methyl-1H-indol-3-yl] acetic acid] |  | (96%) | (70%) | 3.17 ± 0.18 | 0.43 ± 0.02 | <0.125 | 5.48 ± 0.28 | 0.009 ± 0.003 | 11.4 ± 0.93 × 10^6 |
